Data on 18 compounds can be found in patent EP0312245A2, “Polycyclic compounds and pharmaceutical compositions thereof” (NORISTAN HOLDINGS LIMITED, priority 1987, dated 1989).

In experiment [1] the test system is guinea-pig papillary muscle. In words: Electrophysiological test: action potential of guinea-pig papillary muscle (microelectrode technique). The conditions noted are these: for TIME 1 (Shortest time needed to attain suppression) / TIME 2 (Shortest time needed for reversal of effect by washing out of compound): at the listed bath concentration; for DEGREE OF SUPPRESSION: suppression of action potential at the listed bath concentration; for minimal effective concentration: Cavia porcellus. The protocol:
Electrophysiological studies were conducted on guinea-pig papillary muscle.
Using a microelectrode technique, action potentials were measured from guinea-pig papillary muscles. Action potentials were evoked by electrical stimulation (platinum electrode, Grass S88 stimulator, 1 Hz stimulation frequency; voltage, 10% above threshold). […] The preparations were electrically driven (pacing intervals 1 s, duration 2-5 ms). Slow (Ca2+ mediated) action potentials were evoked in a depolarizing solution (22 mmol/l K and 5 mmol/I Ca^2+) at 0,35 Hz stimulation frequency in order to ensure complete removal of inactivation of slow inward current.

Experiment [2] concerns isolated rabbit ear preparation. Nature of the experiment: Rabbit ear perfusion test (adrenaline-induced tone, perfusion pressure). Here is the method:
Female New Zealand White rabbits (approximately 4kg) were anaesthetised with Sagatal ® (0.5ml/kg).
The central ear artery was cannulated using a 20 G catheter and the ear cut off at its base. Heparinised (5ml, 200 IU;ml) Krebs bicarbonate solution was perfused through the ear to expel the blood. The ear was placed in a warming jacket at 37°C and attached via the arterial catheter to the perfusion pump. Perfusion of the ear with aerated (95% 025% C02)Krebs bicarbonate solution at 37° C was commenced at a rate of 6.5ml/min using a Watson Marlow peristaltic pump. The perfusion pressure was monitored continuously using a pressure transducer (Type 4-327-1221, Consoliated Electrodynamics) coupled to a Devices Recorder.
Following an equilibration period of 15 minutes, increased tone was induced in the preparation by addition of adrenaline (1µg/ml) to the perfusion fluid.
After a stable tone was observed, various concentrations of test compounds were injected into the perfusion fluid and examined for their effect on the perfusion pressure. The effect of vehicle (0.2ml, 50% Krebs 50% ethanol) was also tested on the ear preparation.

Where [3] appears, read: read-out: BATH CONCENTRATION (Lowest concentration of the compound to induce suppression of action potential), Table 4, racemates and optical isomers.
Where [4] appears, read: read-out: BATH CONCENTRATION (Lowest concentration of the compound to induce suppression of action potential), Table 3, guinea-pig papillary muscle.
The mark [5] stands for this setting: Oryctolagus cuniculus, Table 5, dose 100 µg, read-out: Mean % change in perfusion pressure.
[6] abbreviates: Oryctolagus cuniculus, Table 5, dose 316 µg, read-out: Mean % change in perfusion pressure.
[7] abbreviates: Oryctolagus cuniculus, Table 5, dose 1000 µg, read-out: Mean % change in perfusion pressure.
Setting [8] is: Oryctolagus cuniculus, Table 5, dose 3160 µg, read-out: Mean % change in perfusion pressure.

Where two headings read alike, the source gives them in different places.

For “1(or7)-Methyl-8-η-butylamino-8,11-oxopentacyclo[5.4.0.0^2,6.0^3,10.0^5,9]undecane [Compound 8]”, in experiment [1] (Table 3), the “TIME 1 (Shortest time needed to attain suppression)” value turned out to be 22 min, the “TIME 2 (Shortest time needed for reversal of effect by washing out of compound)” value is 6 min and the “DEGREE OF SUPPRESSION” value is recorded as “complete”.

`c1ccc(CNC23OC4C5C6CC(C7C6C4C72)C53)cc1` (single isomer, unassigned) [(+) -4, 8-benzylamino-8,11-oxopentacyclo [5.4.0.0^2,6.0^3,10.0^5,9]undecane]: in experiment [1] (Table 4), the “TIME 1 (Shortest time needed to attain suppression)” value turned out to be 20 min, the “TIME 2 (Shortest time needed for reversal of effect by washing out of compound)” value was determined as 15 min and the “DEGREE OF SUPPRESSION” value is “complete”.

As to “1(or7)-Methyl-8-benzylamino-8,11-oxopentacyclo [5.4.0.0^2,6.0^3,10.0^5,9 ]undecane [Compound 10]”, in experiment [1] (Table 3), the “TIME 1 (Shortest time needed to attain suppression)” value turned out to be 20 min, the “TIME 2 (Shortest time needed for reversal of effect by washing out of compound)” value worked out at 10 min and the “DEGREE OF SUPPRESSION” value is given as “complete”.

`CCCCNC12OC3C4C5CC(C6C5C3C61)C42` (single isomer, unassigned) [(-) -2, 8-η -butylamino-8,11-oxopentacyclo [5.4.0.0^2,6.0^3,10.0^5,9] undecane]: the minimal effective concentration in experiment [1] (setting [3]) came to 130 µM. In experiment [1] (Table 4), the “TIME 1 (Shortest time needed to attain suppression)” value came out at 25 min and the “DEGREE OF SUPPRESSION” value was “little”.

On to `CCCCNC12OC3C4C5CC(C6C5C3C61)C42` (single isomer, unassigned) [(+) -2, 8-η -butylamino-8,11-oxopentacyclo [5.4.0.0^2,6.0^3,10.0^5,9] undecane], for which, in experiment [1] (Table 4), the “TIME 1 (Shortest time needed to attain suppression)” value worked out at 25 min and the “DEGREE OF SUPPRESSION” value is on record as “very little”.

As for `CNC12OC3C4C5CC(C6C5C3C61)C42` (racemic) [Compound 1, 8-Methylamino-8,11-oxopentacyclo[5.4.0.0^2,6 .0^3,10 .0^5,9]-undecane], in experiment [1] (setting [4]), the minimal effective concentration worked out at 120 µM. Besides, in experiment [1] (Table 3), the “TIME 1 (Shortest time needed to attain suppression)” value amounted to 25 min and the “DEGREE OF SUPPRESSION” value is recorded as “very little”.

With `CC(C)CNC12OC3C4C5CC(C6C5C3C61)C42` (racemic) [Compound 15, 8-Isobutylamino-8,11-oxopentacyclo [5.4.0.0^2,60^3,10.0^5,9]-undecane], the inhibition at 0.1 mg in experiment [2] (setting [5]) amounted to 6.5%. Further, the inhibition at 0.316 mg in experiment [2] (setting [6]) came out at 8.5%. Also, in experiment [2] (setting [7]), the inhibition at 1 mg amounted to 7%. In addition, in experiment [2] (setting [8]), the inhibition at 3.16 mg was determined as 21%. Further, the “Mean time taken to return to pre-dose volume” value in experiment [2] (Table 5, dose 3160 µg) came to 2.5 min.

On to `CCCCCCCCNC12OC3C4C5CC(C6C5C3C61)C42` (single isomer, unassigned) [(+) -3, 8-η -octylamino-8,11-oxopentacyclo [5.4.0.0^2,6.0^3,10.0^5,9]undecane], for which, in experiment [1] (Table 4), the “TIME 1 (Shortest time needed to attain suppression)” value worked out at 30 min, the “TIME 2 (Shortest time needed for reversal of effect by washing out of compound)” value came to 11 min and the “DEGREE OF SUPPRESSION” value is on record as “incomplete”.

“1 (or7)-Methyl-8-(3-phenylpropyl)-amino-8,11-oxopentacyclo[5.4.0.0^2,6.0^3,10.0^5,9 ]undecane [Compound 12]”: in experiment [1] (Table 3), the “TIME 1 (Shortest time needed to attain suppression)” value turned out to be 12 min, the “TIME 2 (Shortest time needed for reversal of effect by washing out of compound)” value was found to be 20 min and the “DEGREE OF SUPPRESSION” value was “complete”.

Consider `CCCCCCCCNC12OC3C4C5CC(C6C5C3C61)C42` (single isomer, unassigned) [(-) -3, 8-η -octylamino-8,11-oxopentacyclo [5.4.0.0^2,6.0^3,10.0^5,9]undecane], for which, in experiment [1] (Table 4), the “TIME 1 (Shortest time needed to attain suppression)” value worked out at 10 min, the “TIME 2 (Shortest time needed for reversal of effect by washing out of compound)” value stood at 7 min and the “DEGREE OF SUPPRESSION” value is given as “complete”.

In the case of `CCNC12OC3C4C5CC(C6C5C3C61)C42` (racemic) [Compound 13, 8-Ethylamino-8,11-oxopentacyclo [5.4.0.0^2,6.0^3,10.0^5,9]undecane], the inhibition at 0.1 mg in experiment [2] (setting [5]) was determined as 6%. Moreover, in experiment [2] (setting [6]), the inhibition at 0.316 mg is 7%. Further, the inhibition at 1 mg in experiment [2] (setting [7]) came out at 5.5%. Further, the inhibition at 3.16 mg in experiment [2] (setting [8]) was determined as 11.5%. Further, the “Mean time taken to return to pre-dose volume” value in experiment [2] (Table 5, dose 3160 µg) is 2.0 min.

Consider `COc1ccc(CCN(C)CCCC(C#N)(c2ccc(OC)c(OC)c2)C(C)C)cc1OC` (stereo not drawn) [Verapamil, reference compound], for which the minimal effective concentration in experiment [1] (setting [4]) was 40 µM. For the same compound, in experiment [1] (Table 3), the “TIME 1 (Shortest time needed to attain suppression)” value was 10 min, the “TIME 2 (Shortest time needed for reversal of effect by washing out of compound)” value stood at 15 min and the “DEGREE OF SUPPRESSION” value was “complete”.

Turning to `c1ccc(CCCNC23OC4C5C6CC(C7C6C4C72)C53)cc1` (racemic) [Compound 6, 8-(3-Phenylpropyl)-amino-8,11-oxopentacyclo [5.4.0.0^2,6.0^3,10.0^5,9] undecane], the minimal effective concentration in experiment [1] (setting [4]) was 50 µM. Further, in experiment [1] (Table 3), the “TIME 1 (Shortest time needed to attain suppression)” value is 18 min, the “TIME 2 (Shortest time needed for reversal of effect by washing out of compound)” value was determined as 14 min and the “DEGREE OF SUPPRESSION” value is recorded as “complete”.

For the compound `c1ccc(CNC23OC4C5C6CC(C7C6C4C72)C53)cc1` (racemic) [Compound 4, 8-Benzylamino-8,11-oxopentacyclo[5.4.0.0^2,6 .0^3,10 .0^5,9]undecane], the minimal effective concentration in experiment [1] (setting [4]) and in experiment [1] (setting [3]) was 20 µM throughout. In addition, the “TIME 1 (Shortest time needed to attain suppression)” value in experiment [1] (Table 3) and in experiment [1] (Table 4) was 15 min each time. The “TIME 2 (Shortest time needed for reversal of effect by washing out of compound)” value in experiment [1] (Table 3) and in experiment [1] (Table 4) was 10 min throughout. The “DEGREE OF SUPPRESSION” value in experiment [1] (Table 3) and in experiment [1] (Table 4) was “complete” each time.

Turning to `c1ccc(CNC23OC4C5C6CC(C7C6C4C72)C53)cc1` (single isomer, unassigned) [(-) -4, 8-benzylamino-8,11-oxopentacyclo [5.4.0.0^2,6.0^3,10.0^5,9]undecane], the minimal effective concentration in experiment [1] (setting [3]) worked out at 56.6 µM. For the same compound, in experiment [1] (Table 4), the “TIME 1 (Shortest time needed to attain suppression)” value came out at 10 min, the “TIME 2 (Shortest time needed for reversal of effect by washing out of compound)” value is 5 min and the “DEGREE OF SUPPRESSION” value is “complete”.

Regarding “1(or 7)-Methyl-8-methylamino-8,11-oxopentacyclo[5.4.0.0^2,6.0^3,10.0^5,9] undecane [Compound 7]”, in experiment [1] (Table 3), the “TIME 1 (Shortest time needed to attain suppression)” value amounted to 12 min and the “DEGREE OF SUPPRESSION” value is “very little”.

As for `CCCCCCCCCCCCNC12OC3C4C5CC(C6C5C3C61)C42` (racemic) [Compound 14, 8-η -Dodecylamino-8,11-oxopentacyclo [5.4.0.0^2,6.0^3,10.0^5,9]undecane], the inhibition at 0.0316 mg in experiment [2] (Oryctolagus cuniculus, Table 7, dose 31.6 μg, read-out: Mean % change in perfusion pressure) came out at 6.1%. Moreover, the inhibition at 0.1 mg in experiment [2] (Oryctolagus cuniculus, Table 7, dose 100 μg, read-out: Mean % change in perfusion pressure) stood at 12.4%. Besides, the inhibition at 0.316 mg in experiment [2] (Oryctolagus cuniculus, Table 7, dose 316 μg, read-out: Mean % change in perfusion pressure) worked out at 8.7%. In addition, the inhibition at 1 mg in experiment [2] (Oryctolagus cuniculus, Table 7, dose 1000 μg, read-out: Mean % change in perfusion pressure) was determined as 6.6%. Also, the inhibition at 3.16 mg in experiment [2] (Oryctolagus cuniculus, Table 7, dose 3160 μg, read-out: Mean % change in perfusion pressure) stood at 7.7%.

Take “1(or7)-Methyl-8-(2-phenylethyl)-amino-8,11-oxopentacyclo [5.4.0.0^2,6.0^3,1.0^5,9 ]undecane [Compound 11]”: in experiment [1] (Table 3), the “TIME 1 (Shortest time needed to attain suppression)” value turned out to be 32 min, the “TIME 2 (Shortest time needed for reversal of effect by washing out of compound)” value was determined as 35 min and the “DEGREE OF SUPPRESSION” value is “partial”.
